Where a name gives a salt, the structure may show the parent alone.
Tests used:
[1] = biological target: T1, AXL (Homo sapiens, UniProt P30530); assay: TR-FRET kinase activity assay, AXL; assay type: biochemical; settings: ATP at Km, 60 minutes
T1 sequence (P30530 26-894): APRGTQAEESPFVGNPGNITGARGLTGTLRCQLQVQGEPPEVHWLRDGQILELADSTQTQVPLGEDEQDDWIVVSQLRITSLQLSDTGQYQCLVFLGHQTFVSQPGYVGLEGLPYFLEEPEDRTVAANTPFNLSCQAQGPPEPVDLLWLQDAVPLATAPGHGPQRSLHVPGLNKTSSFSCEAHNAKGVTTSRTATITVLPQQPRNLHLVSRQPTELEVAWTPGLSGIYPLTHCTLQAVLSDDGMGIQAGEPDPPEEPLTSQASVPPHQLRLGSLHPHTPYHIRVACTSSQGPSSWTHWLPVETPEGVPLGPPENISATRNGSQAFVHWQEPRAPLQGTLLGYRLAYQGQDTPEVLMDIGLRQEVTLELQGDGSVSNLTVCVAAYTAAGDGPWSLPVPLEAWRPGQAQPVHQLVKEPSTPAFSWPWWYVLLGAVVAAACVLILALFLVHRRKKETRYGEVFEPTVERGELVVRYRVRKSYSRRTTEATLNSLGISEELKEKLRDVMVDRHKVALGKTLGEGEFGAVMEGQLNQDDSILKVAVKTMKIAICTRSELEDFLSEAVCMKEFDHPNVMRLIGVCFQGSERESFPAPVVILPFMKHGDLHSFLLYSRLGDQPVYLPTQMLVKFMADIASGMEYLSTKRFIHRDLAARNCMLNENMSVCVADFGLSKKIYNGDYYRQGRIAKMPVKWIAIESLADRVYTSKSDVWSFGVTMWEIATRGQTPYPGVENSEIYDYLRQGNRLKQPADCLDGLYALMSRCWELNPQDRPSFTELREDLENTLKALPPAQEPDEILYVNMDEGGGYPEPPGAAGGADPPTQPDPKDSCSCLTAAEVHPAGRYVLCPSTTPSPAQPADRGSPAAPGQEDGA
Protocol: (§1) IC50 values for compound inhibition of AXL, FLT3, MERTK and TYRO3 activity were determined using a TR-FRET activity assay. A peptide substrate with a fluorescent label is phosphorylated on a tyrosine by each enzyme, where the now phosphorylated product is bound by a Europium-labeled antibody specific to that phosphorylation site. The proximity between the antibody and the substrate gives a signal known as TR-FRET. As the enzyme is inhibited by compound, less phosphorylated peptide product is made, causing a decrease in overall signal.
(§2) Activity assays were performed in a 384-well, small volume, black microplates in an active enzyme volume of 10 uL and final developed volume of 20 uL. Final assay conditions are 50 mM HEPES pH 7.5, 10 mM MgCl2, 1 mM EGTA, 0.01% Brij 35 and 1 mM DTT, all at RT. Enzyme, substrate-labeled peptide and compound are mixed, and then the reaction is initiated with the addition of ATP at Km concentration for each enzyme. The reaction is allowed to run 60 minutes and then quenched with a 12.5 mM EDTA (ethylenediamine tetraacetic acid) solution. The plate is then developed with the addition of Europium-labeled antibody for a final volume of 20 uL and is then incubated for 30 minutes in darkness. Plates are read in a PHERASTAR® plate reader. Data are analyzed in GraphPad PRISM.

[2] = biological target: T2, MERTK (Homo sapiens, UniProt Q12866); assay: TR-FRET kinase activity assay, MERTK; assay type: biochemical; settings: for IC50: TR-FRET activity assay, ATP at Km, 60 minutes, read-out: Mer IC50; for Mer/Flt3 ratio (FLT3 IC50/Mer IC50): ratio calculated as FLT3 IC50/Mer IC50
T2 sequence (Q12866 21-999): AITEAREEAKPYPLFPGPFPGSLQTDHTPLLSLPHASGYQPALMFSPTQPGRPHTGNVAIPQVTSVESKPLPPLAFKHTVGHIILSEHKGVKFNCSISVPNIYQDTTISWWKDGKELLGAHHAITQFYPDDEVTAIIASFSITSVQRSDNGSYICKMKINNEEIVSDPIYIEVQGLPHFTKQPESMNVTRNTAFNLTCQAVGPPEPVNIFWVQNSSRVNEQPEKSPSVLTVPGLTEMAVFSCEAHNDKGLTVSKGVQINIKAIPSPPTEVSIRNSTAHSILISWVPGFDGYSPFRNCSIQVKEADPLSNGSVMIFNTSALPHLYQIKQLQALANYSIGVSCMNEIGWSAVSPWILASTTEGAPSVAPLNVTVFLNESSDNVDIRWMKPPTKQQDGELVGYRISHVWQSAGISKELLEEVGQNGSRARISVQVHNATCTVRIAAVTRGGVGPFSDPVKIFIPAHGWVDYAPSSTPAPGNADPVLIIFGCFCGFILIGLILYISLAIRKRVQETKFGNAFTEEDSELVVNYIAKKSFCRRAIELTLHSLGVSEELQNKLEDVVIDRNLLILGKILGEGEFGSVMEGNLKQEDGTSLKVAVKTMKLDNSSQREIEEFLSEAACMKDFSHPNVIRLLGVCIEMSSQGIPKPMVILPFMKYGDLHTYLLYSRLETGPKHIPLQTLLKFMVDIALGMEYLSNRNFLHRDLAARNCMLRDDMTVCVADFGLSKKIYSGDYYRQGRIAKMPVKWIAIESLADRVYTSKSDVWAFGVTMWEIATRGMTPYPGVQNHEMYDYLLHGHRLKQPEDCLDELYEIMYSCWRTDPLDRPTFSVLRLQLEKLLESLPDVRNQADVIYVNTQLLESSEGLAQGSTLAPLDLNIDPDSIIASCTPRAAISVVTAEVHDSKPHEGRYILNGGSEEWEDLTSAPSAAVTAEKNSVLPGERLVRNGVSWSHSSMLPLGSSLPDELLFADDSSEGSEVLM
Protocol: as §1, §2

| SMILES | IC50 [1] | IC50 [2] | Mer/Flt3 ratio (FLT3 IC50/Mer IC50) [2] |
| --- | --- | --- | --- |
| CCCCNc1cc2c(cn1)c(OC1CCNCC1)ncc2[C@H]1CC[C@H](O)CC1 [Compound 107] | ≤ 100 nM | ≤ 100 nM | ++ (a ratio of between 10 and 100) |
| CCCCC[C@H](C)Nc1ncc2c(=O)n(C3CCOCC3)cc([C@H]3CC[C@H](O)CC3)c2n1 [Compound 108] | 100 to 1000 nM | ≤ 100 nM | +++ (a ratio of >100) |
| CCCCNc1cc2c(cn1)c(=O)n(C1CCNCC1)cc2[C@H]1CC[C@H](O)CC1 [Compound 109, 6-(butylamino)-4-((1r,4r)-4-hydroxycyclohexyl)-2-(piperidin-4-yl)-2,7-naphthyridin-1(2H)-one hydrochloride] | 100 to 1000 nM | ≤ 100 nM | ++ (a ratio of between 10 and 100) |
| CC[C@@H](C)Nc1ncc2c(OC3CCN(C)CC3)ncc([C@H]3CC[C@H](O)CC3)c2n1 [Compound 195] | 100 to 1000 nM | ≤ 100 nM | +++ (a ratio of >100) |
| CCC[C@@H](C)Nc1ncc2c(OC3CCNCC3)ncc([C@H]3CC[C@H](O)CC3)c2n1 [Compound 196] | 100 to 1000 nM | ≤ 100 nM | +++ (a ratio of >100) |
| Cc1cccc(Nc2ncc3c(OC4CCNCC4)ncc([C@H]4CC[C@H](O)CC4)c3n2)c1 [Compound 197] | ≤ 100 nM | ≤ 100 nM | ++ (a ratio of between 10 and 100) |
| Cc1cc(Cl)ccc1Nc1ncc2c(OC3CCNCC3)ncc([C@H]3CC[C@H](O)CC3)c2n1 [Compound 198] | 1000 to 10000 nM | 100 to 1000 nM | + (a ratio of >2.0 and <10) |
| CCCC(C)Nc1ncc2c(=O)n([C@H]3CCN(C)C[C@@H]3F)cc([C@H]3CC[C@H](O)CC3)c2n1 (stereo partly drawn) [Compound 199] | 1000 to 10000 nM | ≤ 100 nM | +++ (a ratio of >100) |
| CCCC(C)Nc1ncc2c(=O)n([C@@H]3CCCN(C)C3)cc([C@H]3CC[C@H](O)CC3)c2n1 (stereo partly drawn) [Compound 200] | 1000 to 10000 nM | ≤ 100 nM | +++ (a ratio of >100) |
| CCCC(C)Nc1ncc2c(=O)n(C3CCN(C4COC4)CC3)cc([C@H]3CC[C@H](O)CC3)c2n1 (stereo partly drawn) [Compound 201] | 100 to 1000 nM | 100 to 1000 nM | +++ (a ratio of >100) |
| CC(Nc1ncc2c(OC3CCNCC3)ncc([C@H]3CC[C@H](O)CC3)c2n1)c1ccncc1 (stereo partly drawn) [Compound 202] | 1000 to 10000 nM | 100 to 1000 nM | ++ (a ratio of between 10 and 100) |
| CCCC(C)Nc1ncc2c(OC3CCNCC3)ncc([C@H]3CC[C@H](O)CC3)c2n1 (stereo partly drawn) [Compound 203] | ≤ 100 nM | ≤ 100 nM | + (a ratio of >2.0 and <10) |
| CCC[C@@H](C)Nc1ncc2c(OC3CCNCC3)ncc([C@H]3CC[C@@H](O)CC3)c2n1 [Compound 204] | 100 to 1000 nM | ≤ 100 nM | ++ (a ratio of between 10 and 100) |
| O[C@H]1CC[C@H](c2cnc(OC3CCNCC3)c3cnc(Nc4cccc(Cl)c4)nc32)CC1 [Compound 205] | ≤ 100 nM | ≤ 100 nM | ++ (a ratio of between 10 and 100) |
| O[C@H]1CC[C@H](c2cnc(OC3CCNCC3)c3cnc(Nc4ccc(Cl)cc4)nc32)CC1 [Compound 206] | ≤ 100 nM | ≤ 100 nM | + (a ratio of >2.0 and <10) |
| CCc1cccc(Nc2ncc3c(OC4CCNCC4)ncc([C@H]4CC[C@H](O)CC4)c3n2)c1 [Compound 207] | ≤ 100 nM | ≤ 100 nM | ++ (a ratio of between 10 and 100) |
| CCC[C@@H](C)Nc1ncc2c(OC3CCN(C)CC3)ncc([C@H]3CC[C@H](O)CC3)c2n1 [Compound 208] | 100 to 1000 nM | ≤ 100 nM | +++ (a ratio of >100) |
| Cc1ccc(Cl)cc1Nc1ncc2c(OC3CCNCC3)ncc([C@H]3CC[C@H](O)CC3)c2n1 [Compound 209] | 1000 to 10000 nM | 100 to 1000 nM | NS (a ratio of ≤2.0) |
| O[C@H]1CC[C@H](c2cnc(OC3CCNCC3)c3cnc(Nc4ccccc4)nc32)CC1 [Compound 210] | ≤ 100 nM | ≤ 100 nM | + (a ratio of >2.0 and <10) |
| O[C@H]1CC[C@H](c2cnc(OC3CCNCC3)c3cnc(NC4CCOCC4)nc32)CC1 [Compound 211] | 100 to 1000 nM | ≤ 100 nM | ++ (a ratio of between 10 and 100) |
| CC(C)CNc1ncc2c(OC3CCNCC3)ncc([C@H]3CC[C@H](O)CC3)c2n1 [Compound 212] | 100 to 1000 nM | ≤ 100 nM | ++ (a ratio of between 10 and 100) |
| O[C@H]1CC[C@H](c2cnc(OC3CCNCC3)c3cnc(N[C@@H]4CCOC4)nc32)CC1 [Compound 213] | 100 to 1000 nM | ≤ 100 nM | ++ (a ratio of between 10 and 100) |
| CCCC(C)Nc1ncc2c(O[C@@H]3CCCN(C)C3)ncc([C@H]3CC[C@H](O)CC3)c2n1 (stereo partly drawn) [Compound 214] | 1000 to 10000 nM | ≤ 100 nM | ++ (a ratio of between 10 and 100) |
| CCOc1ncc(C2CCN(C)CC2)c2nc(N[C@@H](C)CC)ncc12 [Compound 215] | 1000 to 10000 nM | 100 to 1000 nM | ++ (a ratio of between 10 and 100) |
| O[C@H]1CC[C@H](c2cnc(OC3CCNCC3)c3cnc(N[C@H]4CCCOC4)nc32)CC1 [Compound 216] | 1000 to 10000 nM | 100 to 1000 nM | ++ (a ratio of between 10 and 100) |
| CC[C@H](C)Nc1ncc2c(NC3CCOCC3)ncc([C@H]3CC[C@H](O)CC3)c2n1 [Compound 217] | 1000 to 10000 nM | ≤ 100 nM | +++ (a ratio of >100) |
| C[C@@H](Nc1ncc2c(OC3CCNCC3)ncc([C@H]3CC[C@H](O)CC3)c2n1)c1ccccc1 [Compound 218] | 1000 to 10000 nM | 100 to 1000 nM | + (a ratio of >2.0 and <10) |
| CC[C@H](C)Nc1ncc2c(NC3CCN(C)CC3)ncc([C@H]3CC[C@H](O)CC3)c2n1 [Compound 220] | ≤ 100 nM | ≤ 100 nM | +++ (a ratio of >100) |

Source: patent publication US20200291018A1, “TAM KINASE INHIBITORS” (SYROS PHARMACEUTICALS, INC., priority 2017, published 2020)
